Measurements taken from PubChem BioAssay (NCI).
“And” between values parts separate entries of the source, which are not always exact repeats. Equal entries are not always repeated.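 Assay format: 96-well plates, 48-hour exposure. At the GI50, growth is halved. The concentration for full growth arrest is given as TGI.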

How the values were obtained:
Assay in all cases: NCI tumour cell line growth inhibition, 48 h
SW-620 colon = test system: SW-620 colon
SF-295 CNS = test system: SF-295 CNS
RXF 393 renal = test system: RXF 393 renal
HCT-15 colon = test system: HCT-15 colon
EKVX NSCLC = test system: EKVX NSCLC
DU-145 prostate = test system: DU-145 prostate
RPMI-8226 leukemia = test system: RPMI-8226 leukemia
U251 CNS = test system: U251 CNS
HL-60(TB) leukemia = test system: HL-60(TB) leukemia
CCRF-CEM leukemia = test system: CCRF-CEM leukemia

| SMILES | GI50 (SW-620 colon) | TGI (SW-620 colon) [µM] | GI50 (SF-295 CNS) | TGI (SF-295 CNS) [µM] | GI50 (RXF 393 renal) | TGI (RXF 393 renal) [µM] | GI50 (HCT-15 colon) | TGI (HCT-15 colon) [µM] | GI50 (EKVX NSCLC) [µM] | TGI (EKVX NSCLC) [µM] | GI50 (DU-145 prostate) [µM] | TGI (DU-145 prostate) [µM] | GI50 (RPMI-8226 leukemia) | TGI (RPMI-8226 leukemia) [µM] | GI50 (U251 CNS) | TGI (U251 CNS) [µM] | TGI (HL-60(TB) leukemia) [µM] | TGI (CCRF-CEM leukemia) [µM] | GI50 (HL-60(TB) leukemia) | GI50 (CCRF-CEM leukemia) [µM] |
| --- | --- | --- | --- | --- | --- | --- | --- | --- | --- | --- | --- | --- | --- | --- | --- | --- | --- | --- | --- | --- |
| CN1CCN(CCCOc2cccc3nc(Nc4cc(Cl)cc(Cl)c4)ccc23)CC1 | 1.97 µM | 3.68 | 1.72 µM | 3.32 | 1.67 µM | 3.22 | 1.42 µM | 2.83 | 1.73 | 3.27 | 1.69 | 3.13 | 2.17 µM | 4.93 | 1.72 µM | 3.1 |  |  |  |  |
| CCCCCC/C=C/C#CCCCCCCCC(=O)O |  | > 100 |  | > 100 |  |  |  | > 100 |  | > 100 |  | > 100 |  | > 100 |  | > 100 | > 100 | > 100 |  |  |
| Nc1nc(=O)n(C2CC(O)C(CO)O2)cc1F (stereo not drawn) |  | > 100 |  | > 100 | > 57.8 µM | > 100 | 28.4 µM | > 100 |  | > 100 |  | > 100 |  | > 100 | < 0.0506 µM | > 100 | > 100 | > 100 | > 80.8 µM | 0.00276 |
| COc1ccccc1-n1cnc(N)c1C(=O)c1cc(OC)c(OC)c(OC)c1 | 3.25 µM | > 100 | 2.73 µM | > 100 | 2.19 µM | 64.5 | 3.36 µM | > 100 | 7.55 | > 100 | 6.65 | > 100 | 2.42 µM | 13.3 | 3.74 µM | > 100 | > 100 | > 100 | 3.12 µM | 2.69 |
| COc1ccc(C(=O)/C=C/c2sc(Cl)nc2Cl)cc1 | 0.613 µM | 2.79 | 3.07 µM | 11.7 | 1.28 µM | 3.02 | 0.416 µM | 2.14 | 3.67 | 14.8 | 1.9 | 3.55 | 1.36 µM | 4.77 | 1.68 µM | 3.83 | 4.63 | 14.7 | 1.95 µM | 0.267 |
| O=C(NC1CCN(Cc2ccccc2)CC1)c1cc(-c2cccnc2)nc2ccc(Cl)cc12 | 11.5 µM | > 100 | 10.6 µM | 26 | 4.18 µM | 19.4 | 4.57 µM | 30.5 |  |  | 8.78 | > 100 | 6.62 µM | > 100 | 6.94 µM | 22.5 | 45.2 |  | 8.27 µM |  |
| C[C@@H]1CC[C@H]2[C@@H](C)C(O)O[C@@H]3O[C@]4(C)CC[C@@H]1[C@]32OO4 (stereo partly drawn) | 0.347 µM | 17 | 0.625 µM | 35.4 | 1.15 µM | 17.8 | 0.141 µM | 13.8 | 0.65 | 17.2 | 5.27 | 17.4 | 0.143 µM |  | 0.532 µM | 16.6 | 0.517 | 35 | 0.176 µM | 0.568 |
| Cc1c2cnccc2c(C)c2c1c1cc(O)ccc1n2C(C)C | 0.408 µM | 3.27 | 1.7 µM | 5.35 | 0.935 µM | 2.39 | 0.44 µM | 4.2 | 0.846 | 2.41 | 0.688 | 7.06 | 1.05 µM | 3.19 | 1.77 µM | 6.51 | 3.13 | 5.81 | 0.42 µM | 1.33 |
| CCn1cnc(C[C@H](NC(=O)[C@H](CCCCNC(=O)Nc2cc(C(F)(F)F)cc(C(F)(F)F)c2)NC(=O)Nc2cc(C(F)(F)F)cc(C(F)(F)F)c2)C(=O)OC)c1 | 6.86 µM | > 10 | > 10 µM | > 10 | 4.24 µM | > 10 | > 10 µM | > 10 |  |  | 5.49 | > 10 | 3.08 µM | > 10 | 3.8 µM | > 10 |  | > 10 |  | 3.04 |
| CC(=O)N[C@H](C)[C@@H](O)[C@@H](C)[C@@H]1OC(=O)/C=C/C=C(C)\C=C\[C@]2(C)C[C@@H](NS(C)(=O)=O)C=C[C@@H]2/C=C(C)/C=C/[C@H]1C | 0.00821 µM and 0.0135 µM | > 43.5 | 0.00244 µM and 0.00435 µM |  | 0.00352 µM and 0.00846 µM | 31.1 | 0.0359 µM and 0.0337 µM | > 43.5 |  | > 43.5 |  | > 43.5 | 0.00766 µM and 0.0153 µM | > 43.5 | 0.00368 µM and 0.00435 µM | > 43.5 | > 43.5 |  | 0.00579 µM and 0.0124 µM |  |
| CCOC(=O)/C(=C/CC/C(C)=C/CC/C(C)=C/CCc1ccoc1)CC(=O)N1CCCCC1 | 4.8 µM | 19.2 | 1.55 µM | 5.08 | 2.45 µM | 9.62 | 3.01 µM | 12.5 |  |  | 7.76 | 43.4 | 1.87 µM | 5.47 |  |  | 7.4 | 22.5 | 2.99 µM | 3.56 |
| CCN(C(=O)N1CCN(c2cc3c(cc2F)c(=O)c(C(=O)O)cn3C2CC2)CC1)c1nc(-c2ccccc2)cs1 | 3.93 µM | > 100 | 2.24 µM | 8.51 | 2.52 µM | 8.88 | 2.9 µM | > 100 | 3.35 | > 100 | 3.31 | > 100 | 2.41 µM | 8.75 | 3.25 µM | 22.9 | 4.35 |  | 1.59 µM |  |
| Cc1cccc2c(C3=C(c4cn(C)c5ccccc45)C(=O)NC3=O)cn(C)c12 | 12.7 µM | > 25 | > 24 µM | > 25 | 6.16 µM | 24.4 | 11.5 µM | > 25 |  |  | > 25 | > 25 | > 18.6 µM | > 25 | > 25 µM | > 25 | > 25 | > 25 | > 25 µM | > 18 |
